Assay results reported in US11878973B2, “Bicyclic compounds and their uses” (NOVARTIS AG, priority 2021, dated 2024).
Where two headings read alike, the source gives them in different places.

Legend:
SW48 cells = assay: Proliferation assay SW48 (CellTiterGlo, 96 hours)
WRN helicase = WRN helicase (Homo sapiens (Human), UniProt Q14191); assay: In vitro enzymatic activity assay on WRN helicase (DNA dependent ATPase assay, ADP-Glo); assay type: biochemical; conditions: geometric means of at least 2 determinations; read-out: WRN ATPase Activity (IC50)
Summary of the method: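 The WRN helicase core (aa N517-P1238), 10 nM, hydrolysed 300 µM ATP in the presence of 0.2 nM FLAP26 DNA (Tris pH 7.5, 2 mM MgCl2, 50 mM NaCl) for 30 min at room temperature. ADP formed was quantified by ADP-Glo luminescence.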

DLD1-WRN-KO cells = assay: Proliferation assay DLD1-WRN-KO (CellTiterGlo, 96 hours; off-target effects); conditions: read-out: Proliferation Assay DLD1-WRN-KO (GI50)
Procedure: The WRN-knockdown insensitive colon carcinoma cell line DLD-1 (RRID: CVCL_0248) was obtained from the Korean Cell Line Bank (KCLB), and used to generate a derivative in which the endogenous WRN gene copies were knocked out by CRISPR-mediated editing using standard CRISPR methods. The resulting cell line, DLD1-WRN—KO, was used to assess potential off-target compound effects.
All cells were maintained at 37° C. in a humidified 5% CO2 incubator.
For data analysis, the assay background signal that was determined in wells containing medium, but no cells, was subtracted from all other data points prior to further calculations. The extent of growth inhibition and potential cell kill was assessed by comparing the ATP levels (measured using CellTiterGlo, Promega) in compound-treated cells with those present at the time of compound addition. […] 100%, 0% and −100% signify absence of growth inhibition, growth stasis, and complete cell kill, respectively. Compound concentrations leading to half-maximal growth inhibition (G150) and residual cell viability at the highest tested compound concentration (Data (cmax), expressed in percent) were routinely calculated. Data analysis can also be carried out using commercially available software designed to derive IC50 values using 4-parameter fits (e.g. GraphPad Prism, XL fit). The reported GI50 values are the geometrical means of at least 2 independent replicates.

[1] = Homo sapiens, SW48, read-out: Proliferation Assay SW48 (GI50)
[2] = read-out: Proliferation Assay SW48 (GI50), SW48 cell line, geometric means of at least 2 determinations
[3] = DLD1-WRN-KO cell line, geometric means of at least 2 determinations

WRN helicase, sequence (Q14191 517-1238): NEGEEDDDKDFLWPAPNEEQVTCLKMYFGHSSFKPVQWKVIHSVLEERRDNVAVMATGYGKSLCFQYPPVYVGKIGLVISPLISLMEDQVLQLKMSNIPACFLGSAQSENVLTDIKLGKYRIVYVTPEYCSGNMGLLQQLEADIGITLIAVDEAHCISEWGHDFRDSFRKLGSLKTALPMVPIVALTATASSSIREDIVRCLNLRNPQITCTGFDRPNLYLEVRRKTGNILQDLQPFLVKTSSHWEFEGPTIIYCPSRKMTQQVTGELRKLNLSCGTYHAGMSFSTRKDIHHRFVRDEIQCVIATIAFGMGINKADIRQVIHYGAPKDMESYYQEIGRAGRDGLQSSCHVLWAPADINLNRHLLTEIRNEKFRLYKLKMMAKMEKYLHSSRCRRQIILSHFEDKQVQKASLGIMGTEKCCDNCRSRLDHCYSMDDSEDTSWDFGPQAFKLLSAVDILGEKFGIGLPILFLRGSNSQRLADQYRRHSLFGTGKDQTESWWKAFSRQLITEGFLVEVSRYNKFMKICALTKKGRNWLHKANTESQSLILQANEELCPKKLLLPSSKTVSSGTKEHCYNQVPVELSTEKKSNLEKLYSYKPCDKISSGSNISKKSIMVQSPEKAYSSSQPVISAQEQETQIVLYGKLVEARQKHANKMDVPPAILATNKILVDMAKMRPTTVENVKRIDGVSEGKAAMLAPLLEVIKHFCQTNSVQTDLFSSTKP

Row | Compound | GI50 (SW48 cells; [1]) [µM] | IC50 (WRN helicase) [µM] | GI50 (DLD1-WRN-KO cells; Homo sapiens) [µM] | GI50 (SW48 cells; [2]) [µM] | GI50 (DLD1-WRN-KO cells; [3]) [µM]
1 | CCc1c(N2CCN(C(=O)c3ncccc3O)CC2)c(=O)n2nc(C3=CCOCC3)nc2n1CC(=O)Nc1ccc(C(F)(F)F)nc1Cl [Example 45, N-(2-chloro-6-(trifluoromethyl)pyridin-3-yl)-2-(2-(3,6-dihydro-2H-pyran-4-yl)-5-ethyl-6-(4-(3-hydroxypicolinoyl)piperazin-1-yl)-7-oxo-[1,2,4]triazolo[1,5-a]pyrimidin-4(7H)-yl)acetamide] | 0.08 | 0.13 | > 10 | – | –
2 | CCc1c(N2CCN(C(=O)c3ncccc3O)CC2)c(=O)n2nc(N3CCOCC3)nc2n1CC(=O)Nc1cc(Cl)c(C(F)(F)F)cc1C [Example 4, N-(5-chloro-2-methyl-4-(trifluoromethyl)phenyl)-2-(5-ethyl-6-(4-(3-hydroxypicolinoyl)piperazin-1-yl)-2-morpholino-7-oxo-[1,2,4]triazolo[1,5-a]pyrimidin-4(7H)-yl)acetamide] | 0.06 | 0.04 | > 10 | – | –
3 | CCc1c(N2CCN(C(=O)c3ncccc3O)CC2)c(=O)n2nc(N3CCC[C@@H](F)C3)nc2n1CC(=O)Nc1ccc(C(F)(F)F)cc1Cl (single isomer, unassigned) [Example 15b, ((R)—N-(2-chloro-4-(trifluoromethyl)phenyl)-2-(5-ethyl-2-(3-fluoropiperidin-1-yl)-6-(4-(3-hydroxypicolinoyl)piperazin-1-yl)-7-oxo-[1,2,4]triazolo[1,5-a]pyrimidin-4(7H)-yl)acetamide) or ((S)—N-(2-chloro-4-(trifluoromethyl)phenyl)-2-(5-ethyl-2-(3-fluoropiperidin-1-yl)-6-(4-(3-hydroxypicolinoyl)piperazin-1-yl)-7-oxo-[1,2,4]triazolo[1,5-a]pyrimidin-4(7H)-yl)acetamide)] | – | 0.12 | – | 0.36 | > 10
4 | CCc1c(N2CCN(C(=O)c3ncccc3O)CC2)c(=O)n2nc(C3=CCOCC3)nc2n1CC(=O)Nc1cc(Cl)c(C(F)(F)F)nc1C [Example 102, N-(5-chloro-2-methyl-6-(trifluoromethyl)pyridin-3-yl)-2-(2-(3,6-dihydro-2H-pyran-4-yl)-5-ethyl-6-(4-(3-hydroxypicolinoyl)piperazin-1-yl)-7-oxo-[1,2,4]triazolo[1,5-a]pyrimidin-4(7H)-yl)acetamide] | 0.17 | 0.09 | > 10 | – | –
5 | CCc1c(N2CCN(C(=O)c3ncnc(C)c3O)[C@H](C)[C@H]2C)c(=O)n2nc(C3=CCOCC3)nc2n1CC(=O)Nc1ccc(C(F)(F)F)cc1Cl [Example 119, N-(2-chloro-4-(trifluoromethyl)phenyl)-2-(2-(3,6-dihydro-2H-pyran-4-yl)-5-ethyl-6-((2R,3R)-4-(5-hydroxy-6-methylpyrimidine-4-carbonyl)-2,3-dimethylpiperazin-1-yl)-7-oxo-[1,2,4]triazolo[1,5-a]pyrimidin-4(7H)-yl)acetamide] | 0.05 | 0.16 | > 10 | – | –
6 | CCc1c(N2CCN(C(=O)c3nccc(F)c3O)CC2)c(=O)n2nc(C3=CCOCC3)nc2n1CC(=O)Nc1ccc(C(F)(F)F)cc1C [Example 63, 2-(2-(3,6-dihydro-2H-pyran-4-yl)-5-ethyl-6-(4-(4-fluoro-3-hydroxypicolinoyl)piperazin-1-yl)-7-oxo-[1,2,4]triazolo[1,5-a]pyrimidin-4(7H)-yl)-N-(2-methyl-4-(trifluoromethyl)phenyl)acetamide] | 0.05 | 0.11 | > 10 | – | –
7 | CCc1c(N2CCN(C(=O)c3ncccc3O)CC2)c(=O)n2nc(N3CCC[C@H](F)C3)nc2n1CC(=O)Nc1ccc(C(F)(F)F)cc1C [Example 14b, (S)-2-(5-ethyl-2-(3-fluoropiperidin-1-yl)-6-(4-(3-hydroxypicolinoyl)piperazin-1-yl)-7-oxo-[1,2,4]triazolo[1,5-a]pyrimidin-4(7H)-yl)-N-(2-methyl-4-(trifluoromethyl)phenyl)acetamide] | 0.26 | 0.09 | > 10 | – | –
8 | CCc1c(N2CCN(C(=O)c3ncccc3O)CC2)c(=O)n2nc(N3CCOCC3)nc2n1CC(=O)Nc1ccc(C(F)(F)F)nc1Cl [Example 10, N-(2-chloro-6-(trifluoromethyl)pyridin-3-yl)-2-(5-ethyl-6-(4-(3-hydroxypicolinoyl)piperazin-1-yl)-2-morpholino-7-oxo-[1,2,4]triazolo[1,5-a]pyrimidin-4(7H)-yl)acetamide] | 0.29 | 0.25 | 9.9 | – | –
9 | CCc1c(N2CCN(C(=O)c3ncccc3O)CC2)c(=O)n2nc(C3=CCOCC3)nc2n1CC(=O)Nc1cc(Cl)c(C(F)(F)F)cc1C [Example 69, N-(5-chloro-2-methyl-4-(trifluoromethyl)phenyl)-2-(2-(3,6-dihydro-2H-pyran-4-yl)-5-ethyl-6-(4-(3-hydroxypicolinoyl)piperazin-1-yl)-7-oxo-[1,2,4]triazolo[1,5-a]pyrimidin-4(7H)-yl)acetamide] | 0.03 | 0.04 | 6.3 | – | –
10 | CCc1c(N2CCN(C(=O)c3ncnc(C)c3O)[C@H](C)[C@@H]2C)c(=O)n2nc(C3=CCOCC3)nc2n1CC(=O)Nc1ccc(C(F)(F)F)cc1Cl (single isomer, unassigned) [Example 122] | – | 0.15 | – | 0.1 | > 10
11 | CCc1c(N2C[C@@H](C)N(C(=O)c3ncnc(C)c3O)C[C@@H]2C)c(=O)n2nc(C3=CCOCC3)nc2n1CC(=O)Nc1ccc(C(F)(F)F)cc1Cl [Example 118, N-(2-chloro-4-(trifluoromethyl)phenyl)-2-(2-(3,6-dihydro-2H-pyran-4-yl)-5-ethyl-6-((2S,5R)-4-(5-hydroxy-6-methylpyrimidine-4-carbonyl)-2,5-dimethylpiperazin-1-yl)-7-oxo-[1,2,4]triazolo[1,5-a]pyrimidin-4(7H)-yl)acetamide] | 0.45 | 0.09 | > 10 | – | –
12 | CCc1c(N2CCN(C(=O)c3nccc(Cl)c3O)CC2)c(=O)n2nc(N3CCOCC3)nc2n1CC(=O)Nc1ccc(C(F)(F)F)cc1C [Example 9, 2-(6-(4-(4-chloro-3-hydroxypicolinoyl)piperazin-1-yl)-5-ethyl-2-morpholino-7-oxo-[1,2,4]triazolo[1,5-a]pyrimidin-4(7H)-yl)-N-(2-methyl-4-(trifluoromethyl)phenyl)acetamide] | 0.35 | 0.06 | > 10 | – | –
13 | CCc1c(N2CCN(C(=O)c3ncnc(C)c3O)CC2)c(=O)n2nc(C3=CCOCC3)nc2n1CC(=O)Nc1ccc(C(F)(F)F)cc1C [Example 57, 2-(2-(3,6-dihydro-2H-pyran-4-yl)-5-ethyl-6-(4-(5-hydroxy-6-methylpyrimidine-4-carbonyl)piperazin-1-yl)-7-oxo-[1,2,4]triazolo[1,5-a]pyrimidin-4(7H)-yl)-N-(2-methyl-4-(trifluoromethyl)phenyl)acetamide] | 0.1 | 0.1 | > 10 | – | –
14 | CCc1c(N2CCN(C(=O)c3nccc(Cl)c3O)CC2)c(=O)n2nc(C3=CC[C@H](OC)CC3)nc2n1CC(=O)Nc1ccc(C(F)(F)F)nc1Cl (single isomer, unassigned) [Example 24b] | – | 0.1 | – | 0.05 | > 10
15 | CCc1c(N2CCN(C(=O)c3ncccc3O)CC2)c(=O)n2nc(C3=CCC(OC)CC3)nc2n1CC(=O)Nc1ccc(C(F)(F)F)nc1C (racemic) [Example 26, rac-2-(5-ethyl-6-(4-(3-hydroxypicolinoyl)piperazin-1-yl)-2-(4-methoxycyclohex-1-en-1-yl)-7-oxo-[1,2,4]triazolo[1,5-a]pyrimidin-4(7H)-yl)-N-(2-methyl-6-(trifluoromethyl)pyridin-3-yl)acetamide] | 0.08 | 0.25 | > 10 | – | –
16 | CCc1c(N2CCN(C(=O)c3nccc(F)c3O)CC2)c(=O)n2nc(C3=CCOCC3)nc2n1CC(=O)Nc1ccc(C(F)(F)F)nc1Cl [Example 48, N-(2-chloro-6-(trifluoromethyl)pyridin-3-yl)-2-(2-(3,6-dihydro-2H-pyran-4-yl)-5-ethyl-6-(4-(4-fluoro-3-hydroxypicolinoyl)piperazin-1-yl)-7-oxo-[1,2,4]triazolo[1,5-a]pyrimidin-4(7H)-yl)acetamide] | 0.08 | 0.07 | > 10 | – | –
17 | CCc1c(N2CCN(C(=O)c3nccc(Cl)c3O)CC2)c(=O)n2nc(C3=COCCO3)nc2n1CC(=O)Nc1ccc(C(F)(F)F)cc1C [Example 78, 2-(6-(4-(4-chloro-3-hydroxypicolinoyl)piperazin-1-yl)-2-(5,6-dihydro-1,4-dioxin-2-yl)-5-ethyl-7-oxo-[1,2,4]triazolo[1,5-a]pyrimidin-4(7H)-yl)-N-(2-methyl-4-(trifluoromethyl)phenyl)acetamide] | 0.3 | 0.08 | > 10 | – | –
18 | CCc1c(N2CCN(C(=O)c3ncccc3O)CC2)c(=O)n2nc(C3=COCCO3)nc2n1CC(=O)Nc1ccc(C(F)(F)F)cc1C [Example 113, 2-(2-(5,6-dihydro-1,4-dioxin-2-yl)-5-ethyl-6-(4-(3-hydroxypicolinoyl)piperazin-1-yl)-7-oxo-[1,2,4]triazolo[1,5-a]pyrimidin-4(7H)-yl)-N-(2-methyl-4-(trifluoromethyl)phenyl)acetamide] | 0.12 | 0.04 | > 10 | – | –
